The text below walks through data of PMC11031590, “Narazaciclib, a novel multi-kinase inhibitor with potent activity against CSF1R, FLT3 and CDK6, shows strong anti-AML activity in defined preclinical models” (Scientific Reports, 2024).

Each structure is given as a SMILES string.

Experiment [1] deals with MV-4-11 subcutaneous xenograft. The settings on record: prior knowledge; cited from earlier work.
The test system of a further experiment is AM8096 AML-PDX. The experiment in a line: AM8096 systemic AML-PDX model. It is filed as in vivo, NOD/scid mice. The settings on record: AM8096, quizartinib. As to the method:
For systemic AML-PDX models, the model establishment and narazaciclib pharmacology experiment were performed essentially as described previously. Briefly, 2 × 10^6 AM7407 cells, or 2 × 10^6 AM7577 cells, or 2 × 10^6 AM5512 cells, or 1.65 × 10^6 AM8096 cells were inoculated intravenously into 4- to 5-week-old female NOD/scid mice for AML development. Engraftment was confirmed by the presence of circulating human CD45+ cells (anti-human CD45 antibody, Cat. 304038, Biolegend) in peripheral blood. Mice with successful engraftment of AML-PDX were randomized into different treatment groups (N = 6) and received their designated treatments. Narazaciclib was administrated orally or intraperitoneally at 10 mg/kg, or 30 mg/kg, or 100 mg/kg every day throughout the study, while Cytarabine was administrated intraperitoneally at 3 mg/kg every day. Following the initiation of designated treatments, leukemic burden was monitored by flow cytometry with anti-human CD45 antibody on the peripheral blood every week as well as on the peripheral blood, bone marrow cells and splenocytes of mice at sacrifice. Mice were sacrifice once the followings are observed: body weight loss over 20%, reduced motility and activity, labored breathing, ruffled coat, hunched back and severe dehydration.

Experiment [2] deals with MV-4-11 subcutaneous xenograft. The experiment in a line: MV-4-11 subcutaneous xenograft model. It is filed as in vivo, NOD/scid mice. The settings on record: Azacitidine 3 mg/kg intraperitoneally twice per week for 3 weeks. The source says:
The subcutaneous cell line xenograft (CDX) models and systemic patient-derived xenograft (PDX) models of AML have been extensively described before. For the subcutaneous MV-4-11 CDX model, 5 × 10^6 MV-4-11 tumor cells harvested from exponential growth phase were mixed with Matrigel (1:1) and then inoculated into the right front flank region of 6- to 7-week-old female NOD/scid mice for tumor development. MV-4-11 tumor-bearing mice were randomized into 5 groups (N = 8) when their tumor volume reached approximately 100 mm^3 and received their designated treatments following randomization. Narazaciclib was administrated intraperitoneally at 100 mg/kg twice per week for 3 weeks, while Azacitidine was administrated intraperitoneally at 3 mg/kg twice per week for 3 weeks. For the subcutaneous Ba/F3-ETV6-CSF1R CDX model, 1 × 10^6 Ba/F3-ETV6-CSF1R tumor cells harvested from exponential growth phase were mixed with Matrigel (1:1) and then inoculated into the right front flank region of 6- to 8-week-old female NOD/scid mice for tumor development. Ba/F3-ETV6-CSF1R tumor-bearing mice were randomized into 5 groups (N = 6) when their tumor volume reached approximately 100 mm^3 and received their designated treatments following randomization. […] Tumor volume and body weight were measured at different time points and tumor growth inhibition (TGI) was used as index to determine the therapeutic efficacy.

Experiment [3] relates to Ba/F3-RBM6-CSF1R cell line. The experiment in a line: Ba/F3-RBM6-CSF1R proliferation assay (CTG). The experiment is classed as cell-based, mouse. The settings on record: not requiring CSF1. As to the method: (§1) The recombinant Ba/F3 cell lines overexpressing human CSF1R, or human RBM6-CSF1R, or human ETV6-CSF1R were generated using a retrovirus vector (Kyinno Co., Ltd. Beijing). The recombinant Ba/F3 lines overexpressing human Kras G12C orEGFR-L718Q mutants, and different mutant variants of FLT3 were also similarly created as well. A standard proliferation assay via CTG readout was performed according to the vendor’s instructions (KYinno Biotechnology Co., Ltd. Beijing).

A further experiment has as its system Ba/F3-CSF1R cell line. The experiment in a line: Ba/F3-CSF1R proliferation assay (CTG). The experiment is classed as cell-based, mouse. Particulars: + 100 ng/ml CSF-1. As to the method:
as §1

For the compound `CC(C)(C)c1cc(NC(=O)Nc2ccc(-c3cn4c(n3)sc3cc(OCCN5CCOCC5)ccc34)cc2)no1` [quizartinib, reference compound], the “response of MV-4-11 to FLT3i” value in experiment [1] is recorded as “responded”. For the same compound, the response of model result with AM8096 AML-PDX is “responded poorly”.

With `Nc1ncn([C@@H]2O[C@H](CO)[C@@H](O)[C@H]2O)c(=O)n1` [Azacitidine, reference compound], the “anti-AML effect (tumor growth)” value in experiment [2] is listed as “little anti-AML effect”.

With `CNC(=O)c1cc(Oc2ccc(NC(=O)Nc3ccc(Cl)c(C(F)(F)F)c3)cc2)ccn1` [sorafenib], in experiment [1], the “response of MV-4-11 to FLT3i” value was “responded”.

Broadly, the IC50 is the concentration that inhibits the measured activity by half. In the case of `COc1ccc(COc2ccc(Cc3cnc(N)nc3N)cc2OC)cc1` [GW2580, reference compound], the IC50 was 344 nM in experiment [3] and 59.5 nM with Ba/F3-CSF1R cell line.

With `FC(F)(F)c1ccc(CNc2ccc(Cc3c[nH]c4ncc(Cl)cc34)cn2)cn1` [Pexidartinib, pexidartinib, reference compound], the IC50 is 147 nM in experiment [3] (Mus musculus) and about 3.88 nM with Ba/F3-CSF1R cell line (Mus musculus).

With `CCc1nc(C(N)=O)c(Nc2ccc(N3CCC(N4CCN(C)CC4)CC3)c(OC)c2)nc1NC1CCOCC1` [gilteritinib], the “response of MV-4-11 to FLT3i” value in experiment [1] was “responded”.
